According to ChEMBL document CHEMBL3399933, “A combination of in silico and SAR studies to identify binding hot spots of Bcl-xL inhibitors” (Bioorg Med Chem, 2015):

These molecules were tested against Bcl-2-like protein 1 (Homo sapiens, UniProt Q07817) (assay: Inhibition of GST-tagged Bcl-xL (unknown origin) measured after 1 hr incubation by fluorescence polarization assay).
Bcl-2-like protein 1, sequence (Q07817 whole entry): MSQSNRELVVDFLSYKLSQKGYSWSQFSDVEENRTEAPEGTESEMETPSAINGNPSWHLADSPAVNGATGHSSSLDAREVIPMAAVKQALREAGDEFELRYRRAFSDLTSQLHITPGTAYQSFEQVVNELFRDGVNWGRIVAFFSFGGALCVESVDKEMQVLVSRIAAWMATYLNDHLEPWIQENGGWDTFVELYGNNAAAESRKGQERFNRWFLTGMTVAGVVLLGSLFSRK

IC50 [nM]	Ki [nM]	SMILES
11		CN(C)CC[C@H](CSc1ccccc1)Nc1ccc(S(=O)(=O)NC(=O)c2ccc(N3CCN(Cc4cccc(-c5ccccc5)c4)CC3)cc2)cc1[N+](=O)[O-]
	500	O=C(O)c1ccccc1C(=O)c1ccc(Sc2ccc(Cl)cc2)c([N+](=O)[O-])c1
3		CN(C)CC[C@H](CSc1ccccc1)Nc1ccc(S(=O)(=O)Nc2ncnc3cc(N4CCN(Cc5ccccc5-c5ccc(Cl)cc5)CC4)ccc23)cc1[N+](=O)[O-]
22000		CCCN(C(=O)N[C@@H](CSCC(C)C)C(=O)O)C(=O)c1cccc(C#Cc2ccc(F)cc2F)c1
13000		CCCN(C(=O)N[C@@H](CSCc1ccc(Br)cc1)C(=O)O)C(=O)c1cccc(C#Cc2ccc(F)cc2F)c1
	2400	CC(C)C(C(=O)O)N1C(=O)/C(=C/c2ccc(Br)cc2)SC1=S (centres undefined)
6		Cc1c(C(=O)O)c(-c2cccc(N3CCN(c4ccc(NS(=O)(=O)c5ccc(NC(CCN(C)C)CSc6ccccc6)c([N+](=O)[O-])c5)cc4)CC3)c2)c(-c2ccc(Cl)cc2)n1C (centres undefined)

SMILES	IC50 [nM]	Ki [nM]
O=C(O)c1cccc(-c2ccc3c(c2)/C(=N/Nc2nc4ccccc4s2)CCC3)n1	21	
Cc1cc2c(C(C)C)c(O)c(O)c(C=O)c2c(O)c1-c1c(C)cc2c(C(C)C)c(O)c(O)c(C=O)c2c1O [GOSSYPOL]		1000
